Here are results for one compound from patent US11491135B2 (priority 2019, dated 2022).

Like-named read-outs stand apart in the source and are kept apart here.

Test [1] deals with Clostridium perfringens ATCC13124. The class given is cell-based. The note with it: 0.7% BHIA plates, anaerobic 37° C., 48 h.
Test [2] deals with Clostridium perfringens. The class given is cell-based. Particulars: 4, 8, 16 and 32 μg/ml, 30° C., 5 days, crystal violet absorbance at 570 nm.
The test system of test [3] is Clostridium perfringens ATCC13124. The class given is in vivo, Arbor Acre broiler chickens. The note with it: 25 mg/kg orally every 12 h, 5 days.

Regarding `COc1c(O)cc2occ(-c3ccc(O)cc3)c(=O)c2c1O` [tectorigenin], the “gliding motility of Clostridium perfringens on BHIA” value in test [1] (8 μg/ml tectorigenin) is recorded as “significantly inhibit”. In test [1] (32 μg/ml tectorigenin), the “gliding motility of Clostridium perfringens on BHIA” value is given as “significantly inhibit”. Besides, the “biofilm formation of Clostridium perfringens” value in test [2] was “effectively inhibit”. Moreover, in test [3], the “daily weight gain of broiler chickens, treatment group vs infected group” value is “significantly higher than that of the infected group” and the “histopathological injury of small intestine (HE staining)” value was “significantly alleviated”. In addition, in test [3] (chickens sacrificed at 21-day-old), the “degree of pathological changes of the necrotic enteritis in the intestinal tract (intestinal lesion scoring, 0-6)” value is “significantly reduced”.
